The results in this text go back to PubChem BioAssay (NCI).

Each structure is given as a SMILES string.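 48-hour exposure; five concentrations; linearly interpolated endpoints. At the TGI there is no net growth.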 A value given as a limit tells only on which side of the number the result lay.

Some test systems named below: SNB-19 CNS; SK-MEL-28 melanoma; UACC-62 melanoma; HOP-92 NSCLC; SF-295 CNS; HCT-116 colon; SNB-75 CNS; OVCAR-5 ovarian; HCC-2998 colon; NCI-H226 lung; OVCAR-3 ovarian.
Common to all, as to assay: NCI anticancer screen, dose series, 48 h

With `O=c1oc2ccccc2c(Nc2ccc3c(c2)Oc2ccccc2O3)c1[N+](=O)[O-]`, the TGI in the assay with SNB-19 CNS was 40.4 µM; in the assay on SK-MEL-28 melanoma, 50 µM; with UACC-62 melanoma, 37.1 µM; in the assay on HOP-92 NSCLC, 35.2 µM; with SF-295 CNS, 40.5 µM; in the assay with HCT-116 colon, above 100 µM. In addition, the TGI was 30.2 µM with SNB-75 CNS; above 100 µM in the assay with OVCAR-5 ovarian; 62.4 µM in the assay on HCC-2998 colon; 48.1 µM with NCI-H226 lung; 64.2 µM in the assay on OVCAR-3 ovarian.

As to `CC1=NN(c2ccc(S(=O)(=O)O)cc2)C2(C1)SCC(=O)N2c1nc2ccccc2s1` (stereo unspecified), the TGI in the assay on SNB-19 CNS, in the assay with SK-MEL-28 melanoma, with UACC-62 melanoma, in the assay on HOP-92 NSCLC, with SF-295 CNS and in the assay on HCT-116 colon was above 100 µM throughout. Besides, the TGI with SNB-75 CNS, in the assay on OVCAR-5 ovarian, in the assay on HCC-2998 colon, in the assay on NCI-H226 lung and in the assay with OVCAR-3 ovarian was above 100 µM each time.

Turning to `CC1(CF)SCc2nc3ccccc3n21` (stereo unspecified), the TGI with SNB-19 CNS, in the assay on SK-MEL-28 melanoma, in the assay with UACC-62 melanoma, in the assay on HOP-92 NSCLC, with SF-295 CNS and in the assay on HCT-116 colon was above 100 µM each time. The TGI in the assay with SNB-75 CNS, with OVCAR-5 ovarian, in the assay with HCC-2998 colon, in the assay with NCI-H226 lung and in the assay on OVCAR-3 ovarian was above 100 µM in each case.

Regarding `CC(=O)O[C@H]1CC[C@@]2(C)C(=CC[C@H]3[C@@H]4C[C@H](N5CCCC5)[C@H](OC(C)=O)[C@@]4(C)CC[C@@H]32)C1`, the TGI with SNB-19 CNS, with SK-MEL-28 melanoma, in the assay on UACC-62 melanoma, in the assay on HOP-92 NSCLC, in the assay on SF-295 CNS and in the assay with HCT-116 colon was above 100 µM each time. In addition, the TGI in the assay with SNB-75 CNS, in the assay with OVCAR-5 ovarian, in the assay on HCC-2998 colon, in the assay with NCI-H226 lung and in the assay on OVCAR-3 ovarian was above 100 µM throughout.

On to `CC1=NN2C(=N)/C(=C/c3ccco3)C(=O)N=C2S1`, for which the TGI in the assay with SNB-19 CNS, in the assay on SK-MEL-28 melanoma, in the assay on UACC-62 melanoma, with HOP-92 NSCLC, in the assay on SF-295 CNS and with HCT-116 colon was above 100 µM throughout. In addition, the TGI in the assay with SNB-75 CNS, in the assay on OVCAR-5 ovarian, in the assay on HCC-2998 colon, in the assay with NCI-H226 lung and with OVCAR-3 ovarian was above 100 µM each time.

As to `CN(C)c1ccc(C2SCC(=O)N2NS(=O)(=O)c2cccc(C(=O)O)c2)cc1` (stereo unspecified), the TGI in the assay on SNB-19 CNS, in the assay on SK-MEL-28 melanoma, in the assay on UACC-62 melanoma, in the assay on HOP-92 NSCLC, in the assay on SF-295 CNS and with HCT-116 colon was above 100 µM in each case. In addition, the TGI in the assay with SNB-75 CNS, in the assay on OVCAR-5 ovarian, in the assay with HCC-2998 colon, in the assay on NCI-H226 lung and with OVCAR-3 ovarian was above 100 µM each time.

Take `C=C1C(=O)CC2C(=O)C(C)(O)CC/C=C(\C)C(=O)CC12` (stereo unspecified): the TGI in the assay on SNB-19 CNS was above 100 µM; in the assay with SK-MEL-28 melanoma, above 55.6 µM; with UACC-62 melanoma, 91.8 µM; with HOP-92 NSCLC, above 57.3 µM; with SF-295 CNS it was above 100 µM; in the assay on HCT-116 colon, 23 µM. The TGI with SNB-75 CNS is above 100 µM; in the assay on OVCAR-5 ovarian it was 47.2 µM; in the assay with HCC-2998 colon it was above 100 µM; with NCI-H226 lung, above 77.3 µM; with OVCAR-3 ovarian, 59 µM.

`Cc1ccc2c(=O)cc(-c3cccs3)[nH]c2n1`: the TGI was 82.2 µM with SNB-19 CNS; above 100 µM in the assay on SK-MEL-28 melanoma; above 100 µM with UACC-62 melanoma; above 100 µM in the assay on HOP-92 NSCLC; above 69.6 µM in the assay on SF-295 CNS; above 100 µM in the assay with HCT-116 colon. The TGI in the assay on SNB-75 CNS was 63.3 µM; in the assay on OVCAR-5 ovarian, above 100 µM; with HCC-2998 colon it was above 83.2 µM; in the assay with NCI-H226 lung, 63.7 µM; in the assay on OVCAR-3 ovarian, above 100 µM.

Take `Nc1cccc(Nc2nc3ccccc3nc2NS(=O)(=O)c2ccccc2)c1`: the TGI in the assay with SNB-19 CNS was 62.2 µM; in the assay with SK-MEL-28 melanoma, 49.3 µM; in the assay with UACC-62 melanoma it was 46.1 µM; in the assay on HOP-92 NSCLC, 78 µM; in the assay on SF-295 CNS, above 100 µM; in the assay with HCT-116 colon it was 32.9 µM. Moreover, the TGI is above 100 µM in the assay on SNB-75 CNS; above 100 µM in the assay with OVCAR-5 ovarian; 33.9 µM with HCC-2998 colon; above 100 µM with NCI-H226 lung; 47.3 µM in the assay with OVCAR-3 ovarian.

With `COc1ccc(Nc2nc(NS(=O)(=O)c3cc(C)c(Cl)cc3S)n[nH]2)cc1`, the TGI in the assay with SNB-19 CNS, with SK-MEL-28 melanoma, with UACC-62 melanoma, in the assay with HOP-92 NSCLC, in the assay with SF-295 CNS and in the assay with HCT-116 colon was above 100 µM in each case. In addition, the TGI in the assay with SNB-75 CNS, with OVCAR-5 ovarian, in the assay with HCC-2998 colon, with NCI-H226 lung and in the assay with OVCAR-3 ovarian was above 100 µM throughout.

`O=C1NC(N/N=C/C(O)C(O)C(O)CO)=N/C1=C\c1ccco1` (stereo unspecified): the TGI with SNB-19 CNS, in the assay with SK-MEL-28 melanoma, in the assay on UACC-62 melanoma, with HOP-92 NSCLC, in the assay on SF-295 CNS and in the assay with HCT-116 colon was above 100 µM throughout. In addition, the TGI in the assay with SNB-75 CNS, in the assay on OVCAR-5 ovarian, in the assay with HCC-2998 colon, with NCI-H226 lung and in the assay with OVCAR-3 ovarian was above 100 µM each time.

Take `Cc1cn(C(Cc2ccccc2)OCCO)c(=O)[nH]c1=O` (stereo unspecified): the TGI in the assay with SNB-19 CNS, in the assay on SK-MEL-28 melanoma, in the assay on UACC-62 melanoma, in the assay on HOP-92 NSCLC, in the assay on SF-295 CNS and with HCT-116 colon was above 100 µM throughout. For the same compound, the TGI in the assay on SNB-75 CNS, in the assay with OVCAR-5 ovarian, with HCC-2998 colon, with NCI-H226 lung and in the assay on OVCAR-3 ovarian was above 100 µM in each case.

As to `CN(NC(=O)c1cccs1)C1=NCCCN1`, the TGI in the assay with SNB-19 CNS, with SK-MEL-28 melanoma, with UACC-62 melanoma, with HOP-92 NSCLC, in the assay on SF-295 CNS and in the assay on HCT-116 colon was above 100 µM each time. Moreover, the TGI with SNB-75 CNS, with OVCAR-5 ovarian, with HCC-2998 colon, in the assay with NCI-H226 lung and in the assay with OVCAR-3 ovarian was above 100 µM in each case.

On to `C[C@H](N)C(=O)Nc1ccc(-c2nc3ccccc3s2)cc1`, for which the TGI with SNB-19 CNS was found to be 49.6 µM; in the assay on SK-MEL-28 melanoma it was 32.5 µM; in the assay on UACC-62 melanoma, 35.4 µM; in the assay with HOP-92 NSCLC, 95.3 µM; with SF-295 CNS, 33.9 µM; with HCT-116 colon, 28.5 µM. The TGI in the assay on SNB-75 CNS was 41.6 µM; in the assay with OVCAR-5 ovarian, 43.6 µM; with HCC-2998 colon, 45.8 µM; in the assay on NCI-H226 lung, 97.8 µM; in the assay on OVCAR-3 ovarian, 36.9 µM.

Turning to `CC1CCOc2ccc(cc2)C=Nc2ccc(cc2)CCc2ccc(cc2)N=Cc2ccc(cc2)OCC1` (stereo unspecified), the TGI in the assay with SNB-19 CNS, with SK-MEL-28 melanoma, in the assay with UACC-62 melanoma, in the assay with HOP-92 NSCLC, in the assay on SF-295 CNS and with HCT-116 colon was above 100 µM in each case. Also, the TGI was 77.3 µM with SNB-75 CNS; above 100 µM in the assay with OVCAR-5 ovarian; above 100 µM with HCC-2998 colon; above 100 µM in the assay with NCI-H226 lung; above 100 µM with OVCAR-3 ovarian.

On to `O=C(O)CC[N+]1=CCC(c2ccccc2)(c2ccccc2)O1`, for which the TGI with SNB-19 CNS, in the assay with SK-MEL-28 melanoma, with UACC-62 melanoma, in the assay on HOP-92 NSCLC, in the assay with SF-295 CNS and in the assay with HCT-116 colon was above 100 µM throughout. Moreover, the TGI in the assay with SNB-75 CNS, in the assay on OVCAR-5 ovarian, in the assay on HCC-2998 colon, in the assay on NCI-H226 lung and in the assay on OVCAR-3 ovarian was above 100 µM throughout.

As to `CCC1(C(=O)OC(C)(C)C)OC12C(C)CCCC2C` (stereo unspecified), the TGI in the assay with SNB-19 CNS is above 100 µM; with SK-MEL-28 melanoma, above 100 µM; in the assay with UACC-62 melanoma, above 100 µM; in the assay on HOP-92 NSCLC, 85.9 µM; in the assay with SF-295 CNS it was above 100 µM; in the assay on HCT-116 colon, above 100 µM. Besides, the TGI was 97.7 µM in the assay with SNB-75 CNS; above 100 µM in the assay on OVCAR-5 ovarian; 45.1 µM in the assay on HCC-2998 colon; above 100 µM in the assay with NCI-H226 lung; above 100 µM in the assay on OVCAR-3 ovarian.

As to `N#C/C(=C\n1ccc(=O)[nH]c1=S)C(N)=O`, the TGI in the assay on SNB-19 CNS, with SK-MEL-28 melanoma, in the assay with UACC-62 melanoma, in the assay with HOP-92 NSCLC, with SF-295 CNS and with HCT-116 colon was above 100 µM in each case. The TGI with SNB-75 CNS is above 100 µM; in the assay with OVCAR-5 ovarian it was above 100 µM; in the assay with HCC-2998 colon, above 100 µM; in the assay on NCI-H226 lung it was above 100 µM; in the assay with OVCAR-3 ovarian, 0.673 µM.

As to `NP(=O)(OCC1=CC(=O)c2ccccc2C1=O)N(CCBr)CCBr` (stereo unspecified), the TGI in the assay on SNB-19 CNS is above 55.1 µM; in the assay with SK-MEL-28 melanoma it was 11.7 µM; in the assay with UACC-62 melanoma, 5.3 µM; in the assay on HOP-92 NSCLC, 31.5 µM; in the assay on SF-295 CNS, 25.2 µM; in the assay with HCT-116 colon it was above 45.1 µM. Moreover, the TGI in the assay on SNB-75 CNS was above 35.8 µM; with OVCAR-5 ovarian, 45.1 µM; in the assay on HCC-2998 colon, 34.3 µM; in the assay with NCI-H226 lung, 25.8 µM; with OVCAR-3 ovarian, above 25.6 µM.

For the compound `CCOC(=O)/C=C(\C(=O)OCC)n1cc(C)c(=O)n(Cc2cnnn2CCCCOC(C)=O)c1=O`, the TGI was above 66.5 µM with SNB-19 CNS; 25.1 µM with SK-MEL-28 melanoma; 31.7 µM in the assay on UACC-62 melanoma; 4.83 µM with HOP-92 NSCLC; above 76 µM with SF-295 CNS; 22.7 µM in the assay with HCT-116 colon. For the same compound, the TGI in the assay on SNB-75 CNS is 38.3 µM; in the assay with OVCAR-5 ovarian, 39.5 µM; with HCC-2998 colon, 43.9 µM; in the assay with NCI-H226 lung it was 30.4 µM; with OVCAR-3 ovarian, 39.1 µM.

Take `O=c1nc2c(c(-c3ccccc3Cl)[nH]1)COC/C2=C\c1ccccc1Cl`: the TGI with SNB-19 CNS, in the assay with SK-MEL-28 melanoma, in the assay with UACC-62 melanoma, with HOP-92 NSCLC, in the assay with SF-295 CNS and with HCT-116 colon was above 100 µM each time. Besides, the TGI in the assay on SNB-75 CNS, with OVCAR-5 ovarian, in the assay on HCC-2998 colon, with NCI-H226 lung and with OVCAR-3 ovarian was above 100 µM each time.
